Source: ChEMBL document CHEMBL4834472 (J Med Chem, 2021)

Assays:
[1] = target: Receptor-type tyrosine-protein kinase FLT3 (Homo sapiens, UniProt P36888, ITD)
CDK2/Cyclin A1 = CDK2/Cyclin A1 (Homo sapiens, UniProt P24941); type: protein-complex assay
Description: Inhibition of CDK2/Cyclin A1 (unknown origin) at 1 uM using histone H1 as substrate preincubated for 20 mins followed by 33P-ATP addition and measured after 2 hrs by filter binding method

MV4-11 = assay: cells; details: Homo sapiens, MV4-11, 72 h
Description: Antiproliferative activity against human MV4-11 cells assessed as cell death measured after 72 hrs by resazurin dye based assay

K562 = assay: cells; details: Homo sapiens, K562, 72 h
Description: Antiproliferative activity against human K562 cells assessed as cell death measured after 72 hrs by resazurin dye based assay

Receptor-type tyrosine-protein kinase FLT3, sequence (P36888 whole entry, looked up, change not shown): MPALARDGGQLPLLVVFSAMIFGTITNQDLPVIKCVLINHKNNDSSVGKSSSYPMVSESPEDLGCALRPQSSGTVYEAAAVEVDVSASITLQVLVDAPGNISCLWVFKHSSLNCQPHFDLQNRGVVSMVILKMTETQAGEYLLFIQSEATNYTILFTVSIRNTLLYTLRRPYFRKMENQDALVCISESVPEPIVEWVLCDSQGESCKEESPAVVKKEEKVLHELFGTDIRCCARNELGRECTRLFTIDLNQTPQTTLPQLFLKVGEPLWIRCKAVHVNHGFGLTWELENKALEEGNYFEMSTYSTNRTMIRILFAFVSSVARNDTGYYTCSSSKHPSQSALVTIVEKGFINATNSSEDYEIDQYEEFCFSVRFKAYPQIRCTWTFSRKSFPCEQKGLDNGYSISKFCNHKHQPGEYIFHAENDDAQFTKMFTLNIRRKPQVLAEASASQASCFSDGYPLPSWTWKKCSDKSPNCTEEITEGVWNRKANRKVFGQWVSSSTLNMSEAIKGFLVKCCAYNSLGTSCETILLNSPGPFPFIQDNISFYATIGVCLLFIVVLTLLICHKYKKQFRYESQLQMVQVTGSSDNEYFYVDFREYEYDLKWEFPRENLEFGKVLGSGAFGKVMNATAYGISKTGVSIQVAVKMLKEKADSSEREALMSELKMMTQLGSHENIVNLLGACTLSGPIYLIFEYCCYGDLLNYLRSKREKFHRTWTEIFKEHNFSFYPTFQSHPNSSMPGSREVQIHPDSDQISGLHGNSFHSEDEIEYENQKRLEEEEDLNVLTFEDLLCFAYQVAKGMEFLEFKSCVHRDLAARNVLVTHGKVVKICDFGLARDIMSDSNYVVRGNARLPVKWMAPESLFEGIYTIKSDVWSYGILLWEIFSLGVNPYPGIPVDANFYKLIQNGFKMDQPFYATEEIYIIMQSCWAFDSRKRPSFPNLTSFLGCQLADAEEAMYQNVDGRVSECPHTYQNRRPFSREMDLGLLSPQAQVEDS

| Compound | IC50 [1] | IC50 (CDK2/Cyclin A1) | IC50 (MV4-11) | IC50 (K562) |
| --- | --- | --- | --- | --- |
| Cc1n[nH]c2ccc3nc(-c4c[nH]nc4C(F)(F)F)c4c(c3c12)CCC(N)C4 (configuration not stated) | 211 nM | 640 nM | 319 nM | 53800 nM |
| FC(F)(F)c1n[nH]cc1-c1nc2ccc3[nH]nc(Cl)c3c2c2c1CCCCC2 | 34 nM | 1720 nM | 2010 nM | > 100000 nM |
| c1[nH]nnc1-c1nc2ccc3[nH]ncc3c2c2c1CCCC2 | 132 nM | 180 nM | 600 nM | 9800 nM |
| FC(F)(F)c1n[nH]cc1-c1nc2c(C(F)(F)F)cc3[nH]ncc3c2c2c1CCCC2 | 107 nM | 107 nM | 180 nM | 11100 nM |
| CCc1c(C)c(-c2c[nH]nc2C(F)(F)F)nc2ccc3[nH]ncc3c12 | 4 nM | 46 nM | 84 nM | 39100 nM |
| OC1CCc2c(c(-c3c[nH]nc3C(F)(F)F)nc3ccc4[nH]ncc4c23)C1 (configuration not stated) | 16 nM | 20 nM | 32 nM | 22500 nM |
| c1n[nH]cc1-c1nc2ccc3[nH]ncc3c2c2c1CCCC2 | 90 nM | 72 nM | 330 nM | 3930 nM |
| Cn1ncc2c3c4c(c(-c5c[nH]nc5C(F)(F)F)nc3ccc21)CCCC4 | 1690 nM | 3260 nM | 2420 nM | 44600 nM |
| Cn1cc(-c2nc3ccc4[nH]ncc4c3c3c2CCCC3)c(C2CC2)n1 | 3660 nM | 1130 nM | 1300 nM | 33800 nM |
| NC1CCc2c(c(-c3c[nH]nc3C(F)(F)F)nc3ccc4[nH]ncc4c23)C1 (configuration not stated) | 3140 nM | 5970 nM | 3500 nM | 66600 nM |
| O=S1(=O)CCc2c(c(-c3c[nH]nc3C(F)(F)F)nc3ccc4[nH]ncc4c23)C1 | 799 nM | 231 nM | 765 nM | > 100000 nM |
| CC(C)c1n[nH]cc1-c1nc2ccc3[nH]ncc3c2c2c1CCCC2 | 212 nM | 88 nM | 610 nM | 11100 nM |
| N#Cc1n[nH]c2ccc3nc(-c4c[nH]nc4C(F)(F)F)c4c(c3c12)CCCC4 | > 20000 nM | > 20000 nM | > 100000 nM | > 100000 nM |
| CCOC(=O)C1CCc2c(c(-c3c[nH]nc3C(F)(F)F)nc3ccc4[nH]ncc4c23)C1 (configuration not stated) | 118 nM | 111 nM | 37 nM | 6700 nM |
| FC(F)(F)c1n[nH]cc1-c1nc2ccc3[nH]ncc3c2c2c1COCC2 | 109 nM | 190 nM | 92 nM | 9250 nM |
| FC(F)(F)c1n[nH]cc1-c1nc2c(N3CCCCC3)cc3[nH]ncc3c2c2c1CCCC2 | 1250 nM | 5740 nM | 2390 nM | 20300 nM |
| N#CC1CCc2c(c(-c3c[nH]nc3C(F)(F)F)nc3c(F)cc4[nH]ncc4c23)C1 (configuration not stated) | 86 nM | 111 nM | 123 nM | 8810 nM |
| Fc1ccc(-c2cc(-c3c[nH]nc3C(F)(F)F)nc3ccc4[nH]ncc4c23)cc1Cl | > 20000 nM | 1270 nM | 25700 nM | 65900 nM |
| FC(F)(F)c1n[nH]cc1-c1nc2c(Br)cc3[nH]ncc3c2c2c1CCCC2 | > 20000 nM | 10800 nM | 36300 nM | > 100000 nM |
| Fc1n[nH]c2ccc3nc(-c4c[nH]nc4C(F)(F)F)c4c(c3c12)CCCC4 | 31 nM | 272 nM | 660 nM | 31200 nM |
| Fc1cc(F)cc(-c2cc(-c3c[nH]nc3C(F)(F)F)nc3ccc4[nH]ncc4c23)c1 | > 20000 nM | 469 nM | 52500 nM | > 100000 nM |
| FC(F)(F)c1n[nH]cc1-c1cc(-c2ccncc2)c2c(ccc3[nH]ncc32)n1 | 2990 nM | 823 nM | 3620 nM | 76800 nM |
| FC(F)(F)c1ccc(-c2cc(-c3c[nH]nc3C(F)(F)F)nc3ccc4[nH]ncc4c23)cc1 | > 20000 nM | 8240 nM | > 100000 nM | > 100000 nM |
| FC(F)(F)c1n[nH]cc1-c1nc2ccc3[nH]nc(Br)c3c2c2c1CCCC2 | 3 nM | 325 nM | 544 nM | 28900 nM |

| Compound | IC50 [1] | IC50 (CDK2/Cyclin A1) | IC50 (MV4-11) | IC50 (K562) |
| --- | --- | --- | --- | --- |
| FC(F)(F)c1n[nH]cc1-c1nc2ccc3[nH]ncc3c2c2c1CC(N1CCOCC1)CC2 (configuration not stated) | 16 nM | 901 nM | 550 nM | 33000 nM |
| Cc1n[nH]c2ccc3nc(-c4c[nH]nc4C(F)(F)F)c4c(c3c12)CCC(C#N)C4 (configuration not stated) | 15 nM | 333 nM | 12 nM | 9940 nM |
| FC(F)(F)c1n[nH]cc1-c1nc2ccc3sncc3c2c2c1CCCC2 | 8490 nM | 5160 nM | 7350 nM | 56800 nM |
| Cc1n[nH]cc1-c1nc2ccc3[nH]nc(C)c3c2c2c1CCCC2 | 42 nM | 717 nM | 687 nM | 21100 nM |
| Cc1noc(C)c1-c1nc2ccc3[nH]ncc3c2c2c1CCCC2 | 2020 nM | 555 nM | 880 nM | 30800 nM |
| FC(F)(F)c1n[nH]cc1-c1nc2ccc3[nH]nc(I)c3c2c2c1CCCC2 | 21 nM | 63 nM | 1260 nM | 40100 nM |
| CC(=O)NC1CCc2c(c(-c3c[nH]nc3C(F)(F)F)nc3ccc4[nH]ncc4c23)C1 (configuration not stated) | 20 nM | 320 nM | 920 nM | > 100000 nM |
| [O-][S+]1CCc2c(c(-c3c[nH]nc3C(F)(F)F)nc3ccc4[nH]ncc4c23)C1 (configuration not stated) | 17 nM | 40 nM | 24 nM | 8600 nM |
| CN1CCN(C2CCc3c(c(-c4c[nH]nc4C(F)(F)F)nc4ccc5[nH]ncc5c34)C2)CC1 (configuration not stated) | 141 nM | 266 nM | 440 nM | 19100 nM |
| FC(F)(F)c1n[nH]cc1-c1nc2ccc3[nH]nc(Cl)c3c2c2c1CCCC2 | 41 nM | 2320 nM | 2490 nM | > 100000 nM |
| FC(F)(F)c1n[nH]cc1-c1nc2ccc3[nH]nnc3c2c2c1CCCC2 | 408 nM | 1260 nM | 400 nM | 87800 nM |
| NCC1CCc2c(c(-c3c[nH]nc3C(F)(F)F)nc3c(F)cc4[nH]ncc4c23)C1 (configuration not stated) | 19 nM | 58 nM | 740 nM | 16000 nM |
| O=C(O)C1CCc2c(c(-c3c[nH]nc3C(F)(F)F)nc3ccc4[nH]ncc4c23)C1 (configuration not stated) | 563 nM | 1440 nM | 20000 nM | > 100000 nM |
| FC(F)(F)c1n[nH]cc1-c1cc(C2CC2)c2c(ccc3[nH]ncc32)n1 | 368 nM | 87 nM | 980 nM | 78900 nM |
| CN1CCN(CC#Cc2n[nH]c3ccc4nc(-c5c[nH]nc5C(F)(F)F)c5c(c4c23)CCCC5)CC1 | 18 nM | 10000 nM | 459 nM | 24800 nM |
| Cn1cc(-c2nc3ccc4[nH]ncc4c3c3c2CCCC3)c(C(F)(F)F)n1 | 549 nM | 556 nM | 500 nM | 10400 nM |
| CC(C)c1nn(C)cc1-c1nc2ccc3[nH]ncc3c2c2c1CCCC2 | 3840 nM | 1450 nM | 1400 nM | 77500 nM |
| FC(F)(F)c1n[nH]cc1-c1nc2ccc3[nH]ncc3c2c2c1CCCCC2 | 3 nM | 31 nM | 76 nM | 25100 nM |
| Cc1n[nH]cc1-c1nc2c(F)cc3[nH]ncc3c2c2c1CCCC2 | 7 nM | 17 nM | 113 nM | 3770 nM |
| CCc1cnn2c(NCc3ccc[n+]([O-])c3)cc(N3CCCC[C@H]3CCO)nc12 [DINACICLIB] | > 2000 nM |  | 7 nM | 13 nM |
| Nc1ccc(-c2nc3ccc4[nH]ncc4c3c3c2CCCC3)cc1C(F)(F)F | 3120 nM | 237 nM | 2940 nM | 21900 nM |
| Cc1n[nH]c(C)c1-c1nc2ccc3[nH]ncc3c2c2c1CCCC2 | 194 nM | 107 nM | 514 nM | 8730 nM |
| FC(F)(F)c1n[nH]cc1-c1nc2ccc3[nH]ncc3c2c2c1CC(C(F)(F)F)CC2 (configuration not stated) | 126 nM | 139 nM | 14 nM | 8100 nM |
